Laboratory results published in patent US11185531B2, “Arginine methyltransferase inhibitors and uses thereof” (Epizyme, Inc., priority 2013, dated 2021).

Assays:
[1] = target: T1, human PRMT1 (Homo sapiens, UniProt Q99873); experiment: PRMT1 Biochemical Assay (3H-SAM Flashplate, peptide substrate); conditions: 30 min preincubation
T1 construct: GST-tagged PRMT1; made in house; host or cells: High Five insect cells (baculovirus)
Excerpt: (§1) Peptide representative of human histone H4 residues 36-50 was synthesized with an N-terminal linker-affinity tag motif and a C-terminal amide cap by 21st Century Biochemicals. The peptide was purified by high-performance liquid chromatography (HPLC) to greater than 95% purity and confirmed by liquid chromatography mass spectrometry (LC-MS). The sequence was Biot-Ahx-[…]-amide (SEQ ID NO.: 1).
Full-length human PRMT1 isoform 1 (NM_001536.5) transcript clone was amplified from an HEK 293 cDNA library, incorporating flanking 5′ sequence encoding a FLAG tag ([…]) (SEQ ID NO:2) fused directly to Met 1 of PRMT1. The amplified gene was subcloned into pFastBacI (Life Technologies) modified to encode an N-terminal GST tag and a TEV cleavage sequence
GST-tagged PRMT1 was eluted with 50 mM Tris, 2 mM glutathione, pH 7.8, dialysed in buffer A and concentrated to 1 mg/mL. The purity of recovered protein was 73%. Reference: Wasilko, D. J. and S. E. Lee: “TIPS: titerless infected-cells preservation and scale-up” Bioprocess J., 5 (2006), pp. 29-32.
General Procedure for PRMT1 Enzyme Assays on Peptide Substrates.
The assays were all performed in a buffer consisting of 20 mM Bicine (pH=7.6), 1 mM TCEP, 0.005% BSG, and 0.002% Tween 20, prepared on the day of use. Compounds in 100% DMSO (1 ul) were spotted into a polypropylene 384-well V-bottom plates (Greiner) using a Platemate Plus outfitted with a 384-channel head (Thermo Scientific). DMSO (1 ul) was added to Columns 11, 12, 23, 24, rows A-H for the maximum signal control and 1 ul of SAH, a known product and inhibitor of PRMT1, was added to columns 11, 12, 23, 24, rows I-P for the minimum signal control. A cocktail (40 ul) containing the PRMT1 enzyme was added by Multidrop Combi (Thermo-Fisher). The compounds were allowed to incubate with PRMT1 for 30 min at room temperature, then a cocktail (10 ul) containing SAM and peptide was added to initiate the reaction (final volume=51 ul). The final concentrations of the components were as follows: PRMT1 was 0.5 nM, ^3H-SAM was 200 nM, non-radiolabeled SAM was 1.5 uM, peptide was 20 nM, SAH in the minimum signal control wells was 1 mM, and the DMSO concentration was 2%. The assays were stopped by the addition of non-radiolabeled SAM (10 ul) to a final concentration of 300 uM, which dilutes the ^3H-SAM to a level where its incorporation into the peptide substrate is no longer detectable. 50 ul of the reaction in the 384-well polypropylene plate was then transferred to a 384-well Flashplate and the biotinylated peptides were allowed to bind to the streptavidin surface for at least 1 hour before being washed once with 0.1% Tween20 in a Biotek ELx405 plate washer. The plates were then read in a PerkinElmer TopCount plate reader to measure the quantity of ^3H-labeled peptide bound to the Flashplate surface, measured as disintegrations per minute (dpm) or alternatively, referred to as counts per minute (cpm).
(§2) Where dpm=disintegrations per minute, cmpd=signal in assay well, and min and max are the respective minimum and maximum signal controls.
(§3) Where top and bottom are the normally allowed to float, but may be fixed at 100 or 0 respectively in a 3-parameter fit. The Hill Coefficient normally allowed to float but may also be fixed at 1 in a 3-parameter fit. Y is the % inhibition and X is the compound concentration.

[2] = target: T2, human PRMT8 (Homo sapiens, UniProt Q9NR22); experiment: PRMT8 Biochemical Assay (3H-SAM Flashplate, peptide substrate); conditions: 30 min preincubation
T2 construct: Full-length human PRMT8 (NM_019854.4) isoform 1 transcript clone; GST (N, cleaved yes); made in house; host or cells: E. coli BL21(DE3) Gold
T2 sequence (Q9NR22 whole entry, canonical isoform): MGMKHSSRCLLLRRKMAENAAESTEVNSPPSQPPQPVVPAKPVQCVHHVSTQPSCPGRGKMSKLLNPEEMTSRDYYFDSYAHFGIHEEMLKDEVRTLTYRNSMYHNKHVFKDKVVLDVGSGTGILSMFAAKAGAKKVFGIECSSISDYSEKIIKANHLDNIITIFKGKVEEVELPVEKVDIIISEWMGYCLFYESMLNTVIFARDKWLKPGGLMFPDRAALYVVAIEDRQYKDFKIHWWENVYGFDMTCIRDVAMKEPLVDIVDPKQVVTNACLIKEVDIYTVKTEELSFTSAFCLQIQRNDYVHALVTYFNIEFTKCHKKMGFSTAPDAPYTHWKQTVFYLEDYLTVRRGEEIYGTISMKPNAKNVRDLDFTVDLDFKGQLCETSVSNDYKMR
Excerpt: as §1, with “31-45” for “36-50”, “NO:8).” for “NO.: 1).”
The resulting construct encodes an N-terminal GST tag and a thrombin cleavage sequence
GST-tagged PRMT8 was eluted with 50 mM Tris, 2 mM glutathione, pH 7.8. Pooled fractions were cleaved by thrombin (10 U) and dialysed in buffer A. GST was removed by reloading the cleaved protein sample onto glutathione sepharose column and PRMT8 was collected in the flow-through fractions. PRMT8 was purified further by ceramic hydroxyapatite chromatography. The column was washed with 50 mM phosphate buffer, 100 mM NaCl, 5% glycerol, 5 mM 3-mercaptoethanol, pH 7.8 and PRMT8 was eluted by 100 mM phosphate in the same buffer. Protein was concentrated and buffer was exchanged to 50 mM Tris, 300 mM NaCl, 10% glycerol, 5 mM β-mercaptoethanol, pH 7.8 by ultrafiltration. The purity of recovered protein was 89%.
General Procedure for PRMT8 Enzyme Assays on Peptide Substrates.
The assays were all performed in a buffer consisting of 20 mM Bicine (pH=7.6), 1 mM TCEP, 0.005% BSG, and 0.002% Tween 20, prepared on the day of use. Compounds in 100% DMSO (1 ul) were spotted into a polypropylene 384-well V-bottom plates (Greiner) using a Platemate Plus outfitted with a 384-channel head (Thermo Scientific). DMSO (1 ul) was added to Columns 11, 12, 23, 24, rows A-H for the maximum signal control and 1 ul of SAH, a known product and inhibitor of PRMT8, was added to columns 11, 12, 23, 24, rows I-P for the minimum signal control. A cocktail (40 ul) containing the PRMT8 enzyme was added by Multidrop Combi (Thermo-Fisher). The compounds were allowed to incubate with PRMT8 for 30 min at room temperature, then a cocktail (10 ul) containing ^3H-SAM and peptide was added to initiate the reaction (final volume=51 ul). The final concentrations of the components were as follows: PRMT8 was 1.5 nM, ^3H-SAM was 50 nM, non-radiolabeled SAM was 550 nM, peptide was 150 nM, SAH in the minimum signal control wells was 1 mM, and the DMSO concentration was 2%. The assays were stopped by the addition of non-radiolabeled SAM (10 ul) to a final concentration of 400 uM, which dilutes the ^3H-SAM to a level where its incorporation into the peptide substrate is no longer detectable. 50 ul of the reaction in the 384-well polypropylene plate was then transferred to a 384-well Flashplate and the biotinylated peptides were allowed to bind to the streptavidin surface for at least 1 hour before being washed once with 0.1% Tween20 in a Biotek ELx405 plate washer. The plates were then read in a PerkinElmer TopCount plate reader to measure the quantity of ^3H-labeled peptide bound to the Flashplate surface, measured as disintegrations per minute (dpm) or alternatively, referred to as counts per minute (cpm).
as §2, §3

T1 sequence (Q99873 with tags, fused parts or gaps): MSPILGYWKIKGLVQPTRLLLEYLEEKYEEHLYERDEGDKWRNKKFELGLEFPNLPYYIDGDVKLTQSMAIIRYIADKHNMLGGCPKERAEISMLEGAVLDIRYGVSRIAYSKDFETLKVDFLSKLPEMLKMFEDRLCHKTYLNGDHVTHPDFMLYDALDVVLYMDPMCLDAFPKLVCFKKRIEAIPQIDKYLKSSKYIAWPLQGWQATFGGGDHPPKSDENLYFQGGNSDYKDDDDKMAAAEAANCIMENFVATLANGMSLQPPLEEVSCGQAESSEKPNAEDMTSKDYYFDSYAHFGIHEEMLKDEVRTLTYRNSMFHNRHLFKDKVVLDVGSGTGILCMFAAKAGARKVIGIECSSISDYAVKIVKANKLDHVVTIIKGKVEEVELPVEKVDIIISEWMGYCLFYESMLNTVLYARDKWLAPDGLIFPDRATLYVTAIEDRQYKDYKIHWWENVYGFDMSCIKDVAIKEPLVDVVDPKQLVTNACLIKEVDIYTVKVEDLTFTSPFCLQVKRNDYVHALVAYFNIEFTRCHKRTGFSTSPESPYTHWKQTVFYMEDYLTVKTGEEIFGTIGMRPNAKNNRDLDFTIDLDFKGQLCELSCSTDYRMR

SMILES	IC50 [1]	IC50 [2]
CNCCN(C)Cc1c[nH]nc1C#Cc1cccc(OC)c1 [Compound 1]	< 100 nM	101 to 1000 nM
CNCCN(C)Cc1c[nH]nc1C#Cc1ccc(C(C)(C)C)cc1 [Compound 2]	< 100 nM	101 to 1000 nM
CNCCN(C)Cc1c[nH]nc1C#Cc1ccccc1 [Compound 3]	–	101 to 1000 nM
CNCCN(C)Cc1c[nH]nc1C#Cc1ccc(F)cc1 [Compound 4]	< 100 nM	101 to 1000 nM
CNCCN(C)Cc1c[nH]nc1/C=C/c1ccc(-c2ccccc2)cc1 [Compound 5]	< 100 nM	101 to 1000 nM
CNCCN(C)Cc1c[nH]nc1/C=C/c1ccc(C(F)(F)F)cc1 [Compound 6]	< 100 nM	101 to 1000 nM
CNCCN(C)Cc1c[nH]nc1/C=C/c1ccc(OC)cc1 [Compound 7]	< 100 nM	101 to 1000 nM
Cc1ccc(/C=C/c2n[nH]cc2CN(C)CCN)cc1 [Compound 8]	< 100 nM	101 to 1000 nM
CN(CCN)Cc1c[nH]nc1C1=CCOCC1 [Compound 10]	101 to 1000 nM	1010 to 3000 nM
COc1cc(/C=C/c2n[nH]cc2CN(C)CCN)cc(OC)c1 [Compound 11]	< 100 nM	101 to 1000 nM
CN(CCN)Cc1c[nH]nc1/C=C/c1ccc(F)cc1F [Compound 13]	< 100 nM	101 to 1000 nM
CN(CCN)Cc1c[nH]nc1/C=C/c1cc(C(F)(F)F)cc(C(F)(F)F)c1 [Compound 14]	< 100 nM	101 to 1000 nM
CN(CCN)Cc1c[nH]nc1/C=C/c1cc(F)cc(F)c1 [Compound 15]	< 100 nM	101 to 1000 nM
CN(CCN)Cc1c[nH]nc1/C=C/c1cccc(C(F)(F)F)c1 [Compound 16]	< 100 nM	101 to 1000 nM
COc1cccc(/C=C/c2n[nH]cc2CN(C)CCN)c1 [Compound 17]	< 100 nM	101 to 1000 nM
CN(CCN)Cc1c[nH]nc1/C=C/c1ccc(C(F)(F)F)cc1 [Compound 18]	< 100 nM	< 100 nM
COC/C=C/c1n[nH]cc1CN(C)CCN [Compound 19]	101 to 1000 nM	1010 to 3000 nM
CN(CCN)Cc1c[nH]nc1/C=C/c1cccc(F)c1 [Compound 20]	< 100 nM	101 to 1000 nM
CC(C)c1n[nH]cc1CN(C)CCN [Compound 21]	1010 to 3000 nM	3010 to 10000 nM
CN(CCN)Cc1c[nH]nc1C1CCCCC1 [Compound 22]	< 100 nM	101 to 1000 nM

SMILES	IC50 [1]	IC50 [2]
CN(CCN)Cc1c[nH]nc1CCc1ccc(F)cc1 [Compound 23, N^1-((3-(4-fluorophenethyl)-1H-pyrazol-4-yl)methyl)-N^1-methylethane-1,2-diamine]	< 100 nM	101 to 1000 nM
CN(CCN)Cc1c[nH]nc1/C=C/Cc1ccccc1 [Compound 24]	< 100 nM	101 to 1000 nM
CN(CCN)Cc1c[nH]nc1C1=CCCC1 [Compound 25]	101 to 1000 nM	1010 to 3000 nM
CN(CCN)Cc1c[nH]nc1C1CCC1 [Compound 26]	–	3010 to 10000 nM
CC(C)Cc1n[nH]cc1CN(C)CCN [Compound 28, N^1-((3-iso-butyl-1H-pyrazol-4-yl)methyl)-N^1-methylethane-1,2-diamine]	101 to 1000 nM	1010 to 3000 nM
CCCc1n[nH]cc1CN(C)CCN [Compound 29]	101 to 1000 nM	1010 to 3000 nM
Cc1n[nH]cc1CN(C)CCN [Compound 30]	–	3010 to 10000 nM
CN(CCN)Cc1c[nH]nc1C1CCCC1 [Compound 31]	–	> 10000 nM
CNCCN(C)Cc1c[nH]nc1C1CCN(C(=O)Cc2ccccc2)CC1 [Compound 32]	101 to 1000 nM	1010 to 3000 nM
CN(CCN)Cc1n[nH]cc1C1CCCCC1 [Compound 33]	< 100 nM	101 to 1000 nM
CNCCN(C)Cc1c[nH]nc1C1CCN(C(=O)C(C)C)CC1 [Compound 34]	< 100 nM	101 to 1000 nM
CC1CCC(c2c[nH]nc2CN(C)CCN)CC1 (stereo not drawn) [Compound 35]	< 100 nM	101 to 1000 nM
CN(CCN)Cc1n[nH]cc1C1CCC(C)(C)CC1 [Compound 36]	< 100 nM	101 to 1000 nM
CC1CCC(c2n[nH]cc2CN(C)CCN)CC1 (stereo not drawn) [Compound 37, N^1-methyl-N^1-((3-(4-methylcyclohexyl)-1H-pyrazol-4-yl)methyl)ethane-1,2-diamine]	< 100 nM	101 to 1000 nM
CN(CCN)Cc1c[nH]nc1C1CCC(C)(C)CC1 [Compound 38, N^1-((3-(4,4-dimethylcyclohexyl)-1H-pyrazol-4-yl)methyl)-N^1-methylethane-1,2-diamine]	< 100 nM	101 to 1000 nM
CNCCN(C)Cc1c[nH]nc1C1CCN(CC(C)C)CC1 [Compound 39, N^1-((3-(1-isobutylpiperidin-4-yl)-1H-pyrazol-4-yl)methyl)-N^1,N^2-dimethylethane-1,2-diamine]	–	101 to 1000 nM
CNCCN(C)Cc1c[nH]nc1C1CCN(C)CC1 [Compound 41]	< 100 nM	3010 to 10000 nM
CNCCN(C)Cc1c[nH]nc1C1CCNCC1 [Compound 42]	< 100 nM	101 to 1000 nM
CN(CCN)Cc1n[nH]cc1C1CCC(N2CCOCC2)CC1 (stereo not drawn) [Compound 44, N^1-methyl-N^1-((4-(4-morpholinocyclohexyl)-1H-pyrazol-3-yl)methyl)ethane-1,2-diamine]	1010 to 3000 nM	–
